A value given as a limit tells only on which side of the number the result lay.

One experiment concerns the target memapsin 2 (Homo sapiens, UniProt P56817). Kind of experiment: Inhibition of memapsin 2 catalytic activity (Ki). Conditions: memapsin 2, pH 4, 37° C.; read-out: M2K. The class given is biochemical. The method, boiled down: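 Run at 37 °C and pH 4: compound and enzyme pre-incubated 20 min before FS-2 fluorogenic substrate started hydrolysis,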
A further experiment deals with cathepsin D (Homo sapiens, UniProt P07339). Kind of experiment: Inhibition of cathepsin D catalytic activity (Ki). Format: biochemical. As to conditions: pH 4.0, 37° C., read-out: CDK. The method, then: A substrate peptide NH3-ELDLAVEFWHDR-CO2 (SEQ ID NO.:1) (used for inhibition assay of memapsin 2, memapsin 1, and cathepsin D) was dissolved at 2 mg/ml in DMSO and diluted 1:100 in 0.1 M sodium acetate, pH 4.0 just prior to assay. Inhibitor dissolved in DMSO was diluted into 0.1 M sodium acetate, pH 4.0 (1:100 dilution). A […] aliquot of the inhibitor solution in pH 4 buffer was combined with […] of 0.1 M sodium acetate containing 100-200 nM of memapsin 1, memapsin 2, or cathepsin D. Following a pre-incubation at 37° C., the proteolytic assay was initated by addition of […] of the substrate diluted into pH 4 buffer, and incubation continued at 37° C. Aliquots were removed at time intervals, and combined with an equal volume of MALDI-TOF matrix (α-hydroxycinnamic acid in acetone, 20 mg/ml) and immediately spotted in duplicate onto a stainless-steel MALDI sample plate. MALDI-TOF mass spectrometry was performed on a PE Biosystems Voyager DE instrument at the Molecular Biology Resource Center on campus. The instrument was operated at 25,000 accelerating volts in positive mode with a 150 ns delay. Ions with a mass-to-charge ratio (m/z) were detected in the range of 650-2000 atomic mass units. Data were analyzed by the Voyager Data Explorer module to obtain ion intensity data for mass species of substrates and corresponding products in a given mixture. Relative product formation was calculated as the ratio of signal intensity of the product to the sum of signal intensities of both product and the corresponding substrate. Relative product formed per unit time was obtained from non-linear regression analysis of the data representing the initial 15% formation of product using the model: 1−e^−kT, where k was the relative hydrolytic rate constant and T was time in seconds. Alternatively, relative hydrolytic rates were determined using a fluorogenic cleavage assay (Ermolieff, J. et al., Biochemistry, 39: 12450-12456 (2000)). Initial rates from either method were expressed relative to uninhibited controls and the inhibition constant Ki was determined by a non-linear fit to a tight-binding model of competitive inhibition (Bieth, J., Bayer-Symposium V: Proteinase Inhibitors, pp 463-469, Spinger-Varlag, Berlin (1994)). Results are shown in Table 1 above (M2K, CDK, and M1K columns represent, respectively, the K1 values obtained for memapsin 2, cathepsin D and memapsin 1).

The subject of experiment [1] is Aβ production in Chinese hamster ovary cells that over-express human APP695 with the London and Swedish mutations. Kind of experiment: Cellular Aβ IC50 determination (Aβ40 sandwich ELISA). As to conditions: Cricetulus griseus, CHO, 24 h, read-out: Cell, Aβ40, CHO cells over-expressing human APP695 (London and Swedish mutations), 24 h. Background: In an ELISA, binding on a coated surface is turned into a signal by an enzyme label.

Sequence of memapsin 2 (P56817 46-501): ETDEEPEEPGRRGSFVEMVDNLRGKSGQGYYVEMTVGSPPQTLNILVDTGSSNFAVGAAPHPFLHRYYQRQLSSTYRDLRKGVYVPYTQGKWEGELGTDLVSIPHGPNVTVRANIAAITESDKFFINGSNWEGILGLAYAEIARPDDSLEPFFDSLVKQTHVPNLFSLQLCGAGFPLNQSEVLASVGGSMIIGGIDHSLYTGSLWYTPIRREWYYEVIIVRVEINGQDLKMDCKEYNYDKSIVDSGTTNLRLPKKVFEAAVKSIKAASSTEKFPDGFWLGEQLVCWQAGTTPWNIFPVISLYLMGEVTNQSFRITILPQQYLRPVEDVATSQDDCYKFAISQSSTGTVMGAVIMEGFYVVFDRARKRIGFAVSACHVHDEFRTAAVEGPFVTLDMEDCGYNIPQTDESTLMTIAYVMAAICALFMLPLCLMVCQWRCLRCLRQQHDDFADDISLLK
Sequence of cathepsin D (P07339 65-412, species assumed): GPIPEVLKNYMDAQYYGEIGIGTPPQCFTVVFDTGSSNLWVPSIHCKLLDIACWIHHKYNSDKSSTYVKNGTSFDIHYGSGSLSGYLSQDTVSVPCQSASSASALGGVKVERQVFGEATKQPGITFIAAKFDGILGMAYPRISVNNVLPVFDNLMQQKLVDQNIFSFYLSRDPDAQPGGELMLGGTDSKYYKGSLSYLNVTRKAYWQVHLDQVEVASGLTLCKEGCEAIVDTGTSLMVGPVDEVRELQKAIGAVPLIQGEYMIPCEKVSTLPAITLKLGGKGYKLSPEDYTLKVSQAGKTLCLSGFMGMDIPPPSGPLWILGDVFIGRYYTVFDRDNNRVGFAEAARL

As for `COc1ccc(CCNCC(O)C(Cc2ccccc2)NC(=O)c2cc(C(=O)NC(C)c3ccccc3)cc(N(C)S(C)(=O)=O)c2)cc1` (stereo not drawn) [N1-(3-hydroxy-4-(4-methoxyphenethylamino)-1-phenylbutan-2-yl)-5-(N-methylmethylsulfonamido)-N3-(1-phenylethyl)isophthalamide], the Ki on memapsin 2 and on cathepsin D was less than 300 nM throughout. Besides, the IC50 in experiment [1] was less than 1000 nM.
On to `CC(NC(=O)c1cc(C(=O)NC(Cc2ccccc2)C(O)CNCC2CCCN(C)C2)cc(N(C)S(C)(=O)=O)c1)c1ccccc1` (stereo not drawn) [N1-(3-hydroxy-4-((1-methylpiperidin-3-yl)methylamino)-1-phenylbutan-2-yl)-5-(N-methylmethylsulfonamido)-N3-(1-phenylethyl)isophthalamide], for which the Ki on memapsin 2 and on cathepsin D was greater than 501 nM throughout. Further, the IC50 in experiment [1] was greater than 5000 nM.
In the case of `Cc1cc(CNCC(O)C(Cc2ccccc2)NC(=O)c2cc(C(=O)NC(C)c3ccccc3)cc(N(C)S(C)(=O)=O)c2)on1` (stereo not drawn) [N1-(3-hydroxy-4-((3-methylisoxazol-5-yl)methylamino)-1-phenylbutan-2-yl)-5-(N-methylmethylsulfonamido)-N3-(1-phenylethyl)isophthalamide], the Ki on memapsin 2 and at cathepsin D was less than 300 nM each time. Besides, the IC50 in experiment [1] is less than 1000 nM.
For the compound `Cc1cc(CNCC(O)C(Cc2ccccc2)NC(=O)c2cccc(C(=O)N(C)Cc3nc(C)cs3)c2)on1` (stereo not drawn) [N1-(3-hydroxy-4-((3-methylisoxazol-5-yl)methylamino)-1-phenylbutan-2-yl)-N3-methyl-N3-((4-methylthiazol-2-yl)methyl)isophthalamide], the Ki on memapsin 2 was less than 300 nM; at cathepsin D, greater than 501 nM. Besides, the IC50 in experiment [1] was greater than 5000 nM.
For `CC(C)Oc1cncc(CNCC(O)C(Cc2ccccc2)NC(=O)c2cc(C(=O)NC(C)c3ccccc3)cc(N(C)S(C)(=O)=O)c2)c1` (stereo not drawn) [N1-(3-hydroxy-4-((5-isopropoxypyridin-3-yl)methylamino)-1-phenylbutan-2-yl)-5-(N-methylmethylsulfonamido)-N3-(1-phenylethyl)isophthalamide], the Ki on memapsin 2 and at cathepsin D was less than 300 nM each time. Also, the IC50 in experiment [1] was less than 1000 nM.
Turning to `CC(C)c1cncc(CNCC(O)C(Cc2ccccc2)NC(=O)c2cc(C(=O)NC(C)c3ccccc3)cc(N(C)S(C)(=O)=O)c2)c1` (stereo not drawn) [N1-(3-hydroxy-4-((5-isopropylpyridin-3-yl)methylamino)-1-phenylbutan-2-yl)-5-(N-methylmethylsulfonamido)-N3-(1-phenylethyl)isophthalamide], the Ki at memapsin 2 and at cathepsin D was less than 300 nM throughout. Besides, the IC50 in experiment [1] was less than 1000 nM.
With `Cc1cc(CNCC(O)C(Cc2ccccc2)NC(=O)c2cc(C(=O)NC(C)c3ccccc3)cc(N(C)S(C)(=O)=O)c2)no1` (stereo not drawn) [N1-(3-hydroxy-4-((5-methylisoxazol-3-yl)methylamino)-1-phenylbutan-2-yl)-5-(N-methylmethylsulfonamido)-N3-(1-phenylethyl)isophthalamide], the Ki on memapsin 2 and on cathepsin D was less than 300 nM in each case. In addition, the IC50 in experiment [1] is less than 1000 nM.
For the compound `Cc1csc(CN(C)C(=O)c2cccc(C(=O)NC(Cc3ccccc3)C(O)CNCc3cc(C)on3)c2)n1` (stereo not drawn) [N1-(3-hydroxy-4-((5-methylisoxazol-3-yl)methylamino)-1-phenylbutan-2-yl)-N3-methyl-N3-((4-methylthiazol-2-yl)methyl)isophthalamide], the Ki on memapsin 2 and at cathepsin D was 301 to 500 nM each time. Moreover, in experiment [1], the IC50 was in the range of 1000 to 5000 nM.
In the case of `Cc1cncc(CNCC(O)C(Cc2ccccc2)NC(=O)c2cccc(C(=O)N(C)Cc3nc(C)cs3)c2)c1` (stereo not drawn) [N1-(3-hydroxy-4-((5-methylpyridin-3-yl)methylamino)-1-phenylbutan-2-yl)-N3-methyl-N3-((4-methylthiazol-2-yl)methyl)isophthalamide], the Ki on memapsin 2 and on cathepsin D was less than 300 nM each time. The IC50 in experiment [1] is less than 1000 nM.
With `CC(NC(=O)c1cc(C(=O)NC(Cc2ccccc2)C(O)CNC(C)C2CCCCC2)cc(N(C)S(C)(=O)=O)c1)c1ccccc1` (stereo not drawn) [N1-(4-(1-cyclohexylethylamino)-3-hydroxy-1-phenylbutan-2-yl)-5-(N-methylmethylsulfonamido)-N3-(1-phenylethyl)isophthalamide], the Ki on memapsin 2 and at cathepsin D was less than 300 nM in each case. For the same compound, the IC50 in experiment [1] is less than 1000 nM.
Take `COc1cccc(CNCC(O)C(Cc2ccccc2)NC(=O)c2cc(C(=O)NC(C)c3ccccc3)cc(N(C)S(C)(=O)=O)c2)c1F` (stereo not drawn) [N1-(4-(2-fluoro-3-methoxybenzylamino)-3-hydroxy-1-phenylbutan-2-yl)-5-(N-methylmethylsulfonamido)-N3-(1-phenylethyl)isophthalamide]: the Ki on memapsin 2 and at cathepsin D was less than 300 nM in each case. Further, the IC50 in experiment [1] was less than 1000 nM.
As for `COc1cccc(F)c1CNCC(O)C(Cc1ccccc1)NC(=O)c1cc(C(=O)NC(C)c2ccccc2)cc(N(C)S(C)(=O)=O)c1` (stereo not drawn) [N1-(4-(2-fluoro-6-methoxybenzylamino)-3-hydroxy-1-phenylbutan-2-yl)-5-(N-methylmethylsulfonamido)-N3-(1-phenylethyl)isophthalamide], the Ki at memapsin 2 and on cathepsin D was less than 300 nM each time. Also, in experiment [1], the IC50 is less than 1000 nM.
`CC(NC(=O)c1cc(C(=O)NC(Cc2ccccc2)C(O)CNCc2cccc(CN(C)C)c2)cc(N(C)S(C)(=O)=O)c1)c1ccccc1` (stereo not drawn) [N1-(4-(3-((dimethylamino)methyl)benzylamino)-3-hydroxy-1-phenylbutan-2-yl)-5-(N-methylmethylsulfonamido)-N3-(1-phenylethyl)isophthalamide]: the values for the Ki on memapsin 2 and on cathepsin D were less than 300 nM and greater than 501 nM, respectively. In experiment [1], the IC50 is less than 1000 nM.
On to `CC(NC(=O)c1cc(C(=O)NC(Cc2ccccc2)C(O)CNCc2cccc(OC(F)F)c2)cc(N(C)S(C)(=O)=O)c1)c1ccccc1` (stereo not drawn) [N1-(4-(3-(difluoromethoxy)benzylamino)-3-hydroxy-1-phenylbutan-2-yl)-5-(N-methylmethylsulfonamido)-N3-(1-phenylethyl)isophthalamide], for which the Ki on memapsin 2 and on cathepsin D was less than 300 nM in each case. For the same compound, the IC50 in experiment [1] was less than 1000 nM.
Regarding `CC(NC(=O)c1cc(C(=O)NC(Cc2ccccc2)C(O)CNCc2cccc(N(C)C)c2)cc(N(C)S(C)(=O)=O)c1)c1ccccc1` (stereo not drawn) [N1-(4-(3-(dimethylamino)benzylamino)-3-hydroxy-1-phenylbutan-2-yl)-5-(N-methylmethylsulfonamido)-N3-(1-phenylethyl)isophthalamide], the Ki at memapsin 2 was less than 300 nM; on cathepsin D, greater than 501 nM. Moreover, the IC50 in experiment [1] is less than 1000 nM.
In the same order, the values of `CC(NC(=O)c1cc(C(=O)NC(Cc2ccccc2)C(O)CNCc2cccc(CF)c2)cc(N(C)S(C)(=O)=O)c1)c1ccccc1` (stereo not drawn) [N1-(4-(3-(fluoromethyl)benzylamino)-3-hydroxy-1-phenylbutan-2-yl)-5-(N-methylmethylsulfonamido)-N3-(1-phenylethyl)isophthalamide] are less than 300 nM, less than 300 nM and less than 1000 nM.
The like results for `Cc1csc(CN(C)C(=O)c2cccc(C(=O)NC(Cc3ccccc3)C(O)CNCc3cccc(CF)c3)c2)n1` (stereo not drawn) [N1-(4-(3-(fluoromethyl)benzylamino)-3-hydroxy-1-phenylbutan-2-yl)-N3-methyl-N3-((4-methylthiazol-2-yl)methyl)isophthalamide] were, in that order, less than 300 nM, less than 300 nM and less than 1000 nM.

Source of the values: US7504420B2, “Compounds which inhibit beta-secretase activity and methods of use” (CoMentis, Inc., priority 2005, dated 2009).
